Values quoted from earlier work as cited in article PMC9147442, “Design, Synthesis, and Evaluation of Linker-Optimised PSMA-Targeting Radioligands” (Pharmaceutics, 2022).

Set-up: method as in PMID 26985056
Conditions: radiotherapy

[^177Lu]Lu-PSMA-617
renal excretion: ~ 50 % IA
